# Columns and labels:
# Assay type in all cases: functional
# Staphylococcus aureus [1] = test: Antibacterial activity against Staphylococcus aureus obtained from complicated skin and skin structure infections by agar dilution method
# Staphylococcus aureus [2] = test: Antibacterial activity against methicillin resistant Staphylococcus aureus obtained from complicated skin and skin structure infections by agar dilution method
# Staphylococcus aureus [3] = test: Antibacterial activity against methicillin susceptible Staphylococcus aureus obtained from complicated skin and skin structure infections by agar dilution method
# [4] = tested on: Staphylococcus epidermidis; test: Antibacterial activity against coagulase-negative Staphylococcus epidermidis obtained from complicated skin and skin structure infections by agar dilution method
# [5] = tested on: Staphylococcus haemolyticus; test: Antibacterial activity against coagulase-negative Staphylococcus haemolyticus obtained from complicated skin and skin structure infections by agar dilution method
# [6] = tested on: Staphylococcus lugdunensis; test: Antibacterial activity against coagulase-negative Staphylococcus lugdunensis obtained from complicated skin and skin structure infections by agar dilution method
# Staphylococcus hominis = test: Antibacterial activity against coagulase-negative Staphylococcus hominis obtained from complicated skin and skin structure infections by agar dilution method
# Staphylococcus capitis = test: Antibacterial activity against coagulase-negative Staphylococcus capitis obtained from complicated skin and skin structure infections by agar dilution method
# [7] = tested on: Staphylococcus saprophyticus; test: Antibacterial activity against coagulase-negative Staphylococcus saprophyticus obtained from complicated skin and skin structure infections by agar dilution method
# Staphylococcus cohnii = test: Antibacterial activity against coagulase-negative Staphylococcus cohnii obtained from complicated skin and skin structure infections by agar dilution method
# Mammaliicoccus sciuri = test: Antibacterial activity against coagulase-negative Staphylococcus sciuri obtained from complicated skin and skin structure infections by agar dilution method
# Staphylococcus warneri = test: Antibacterial activity against coagulase-negative Staphylococcus warneri obtained from complicated skin and skin structure infections by agar dilution method
# [8] = tested on: Staphylococcus lugdunensis; test: Antibacterial activity against methicillin-resistant, oxacillin-susceptible, coagulase-negative, mecA-positive Staphylococcus lugdunensis obtained from complicated skin and skin structure infections by agar dilution method
# Staphylococcus = test: Antibacterial activity against methicillin-susceptible, coagulase-negative Staphylococcus obtained from complicated skin and skin structure infections by agar dilution method
# [9] = tested on: Streptococcus constellatus; test: Antibacterial activity against Streptococcus constellatus obtained from complicated skin and skin structure infections by agar dilution method
# Streptococcus mitis = test: Antibacterial activity against Streptococcus mitis obtained from complicated skin and skin structure infections by agar dilution method
# [10] = tested on: Staphylococcus intermedius; test: Antibacterial activity against Staphylococcus intermedius obtained from complicated skin and skin structure infections by agar dilution method
# Aerococcus viridans = test: Antibacterial activity against Aerococcus viridans obtained from complicated skin and skin structure infections by agar dilution method
# Bacillus = test: Antibacterial activity against Bacillus spp. obtained from complicated skin and skin structure infections by agar dilution method
# Gemella morbillorum = test: Antibacterial activity against Gemella morbillorum obtained from complicated skin and skin structure infections […]
# Gemella = test: Antibacterial activity against Gemella spp. obtained from complicated skin and skin structure infections by agar dilution method
# Lactococcus lactis = test: Antibacterial activity against Lactococcus lactis obtained from complicated skin and skin structure infections by agar dilution method
# Micrococcus = test: Antibacterial activity against Micrococcus spp. obtained from complicated skin and skin structure infections by agar dilution method
# Pseudomonas aeruginosa = test: Antibacterial activity against Pseudomonas aeruginosa obtained from complicated skin and skin structure infections by agar dilution method
# Acinetobacter baumannii = test: Antibacterial activity against Acinetobacter baumannii obtained from complicated skin and skin structure infections by agar dilution method
# Pseudomonas fluorescens = test: Antibacterial activity against Pseudomonas fluorescens obtained from complicated skin and skin structure infections by agar dilution method
# [11] = tested on: Stenotrophomonas maltophilia; test: Antibacterial activity against Stenotrophomonas maltophilia obtained from complicated skin and skin structure infections by agar dilution method
# Klebsiella aerogenes = test: Antibacterial activity against Enterobacter aerogenes obtained from complicated skin and skin structure infections by agar dilution method
# Klebsiella oxytoca = test: Antibacterial activity against Klebsiella oxytoca obtained from complicated skin and skin structure infections by agar dilution method
# Citrobacter braakii = test: Antibacterial activity against Citrobacter braakii obtained from complicated skin and skin structure infections by agar dilution method
# Citrobacter freundii = test: Antibacterial activity against Citrobacter freundii obtained from complicated skin and skin structure infections by agar dilution method
# Enterobacter amnigenus = test: Antibacterial activity against Enterobacter amnigenus obtained from complicated skin and skin structure infections by agar dilution method; details: Lelliottia amnigena
# Enterobacter cloacae = test: Antibacterial activity against Enterobacter cloacae obtained from complicated skin and skin structure infections by agar dilution method
# Escherichia coli = test: Antibacterial activity against Escherichia coli obtained from complicated skin and skin structure infections by agar dilution method
# Klebsiella pneumoniae = test: Antibacterial activity against Klebsiella pneumoniae obtained from complicated skin and skin structure infections by agar dilution method
# Morganella morganii = test: Antibacterial activity against Morganella morganii obtained from complicated skin and skin structure infections by agar dilution method
# Proteus mirabilis = test: Antibacterial activity against Proteus mirabilis obtained from complicated skin and skin structure infections by agar dilution method
# Proteus penneri = test: Antibacterial activity against Proteus penneri obtained from complicated skin and skin structure infections by agar dilution method
# Proteus vulgaris = test: Antibacterial activity against Proteus vulgaris obtained from complicated skin and skin structure infections by agar dilution method
# Providencia stuartii = test: Antibacterial activity against Providencia stuartii obtained from complicated skin and skin structure infections by agar dilution method
# Salmonella = test: Antibacterial activity against Salmonella spp. obtained from complicated skin and skin structure infections by agar dilution method
# Serratia marcescens = test: Antibacterial activity against Serratia marcescens obtained from complicated skin and skin structure infections by agar dilution method
compound,measurement,setting,value
Cc1onc(-c2ccccc2)c1C(=O)N[C@@H]1C(=O)N2[C@@H]1SC(C)(C)[C@@H]2C(=O)O [OXACILLIN],MIC50,Staphylococcus aureus [1],0.5 µg/mL
same,MIC90,Staphylococcus aureus [1],32 µg/mL
same,MIC50,Staphylococcus aureus [2],16 µg/mL
same,MIC90,Staphylococcus aureus [2],> 32 µg/mL
same,MIC50,Staphylococcus aureus [3],0.25 µg/mL
same,MIC90,Staphylococcus aureus [3],0.5 µg/mL
same,MIC50,[4],0.5 µg/mL
same,MIC90,[4],> 8 µg/mL
same,MIC50,[5],0.5 µg/mL
same,MIC90,[5],> 8 µg/mL
same,MIC50,[6],0.5 µg/mL
same,MIC90,[6],> 8 µg/mL
same,MIC50,Staphylococcus hominis,0.5 µg/mL
same,MIC90,Staphylococcus hominis,> 8 µg/mL
same,MIC50,Staphylococcus capitis,0.5 µg/mL
same,MIC90,Staphylococcus capitis,> 8 µg/mL
same,MIC50,[7],0.5 µg/mL
same,MIC90,[7],> 8 µg/mL
same,MIC50,Staphylococcus cohnii,0.5 µg/mL
same,MIC90,Staphylococcus cohnii,> 8 µg/mL
same,MIC50,Mammaliicoccus sciuri,0.5 µg/mL
same,MIC90,Mammaliicoccus sciuri,> 8 µg/mL
same,MIC50,Staphylococcus warneri,0.5 µg/mL
same,MIC90,Staphylococcus warneri,> 8 µg/mL
same,MIC50,[8],4 µg/mL
same,MIC90,[8],32 µg/mL
same,MIC50,Staphylococcus,0.12 µg/mL
same,MIC90,Staphylococcus,0.25 µg/mL
same,MIC50,[9],0.12 µg/mL
same,MIC90,[9],0.25 µg/mL
same,MIC,Streptococcus mitis,0.25 µg/mL
same,MIC50,Streptococcus mitis,0.25 µg/mL
same,MIC90,Streptococcus mitis,1 µg/mL
same,MIC,[10],0.25 µg/mL
same,MIC50,[10],0.25 µg/mL
same,MIC90,[10],1 µg/mL
same,MIC50,Aerococcus viridans,0.25 µg/mL
same,MIC90,Aerococcus viridans,> 8 µg/mL
same,MIC50,Bacillus,0.25 µg/mL
same,MIC90,Bacillus,> 8 µg/mL
same,MIC50,Gemella morbillorum,0.25 µg/mL
same,MIC90,Gemella morbillorum,> 8 µg/mL
same,MIC50,Gemella,0.25 µg/mL
same,MIC90,Gemella,> 8 µg/mL
same,MIC50,Lactococcus lactis,0.25 µg/mL
same,MIC90,Lactococcus lactis,> 8 µg/mL
same,MIC50,Micrococcus,0.25 µg/mL
same,MIC90,Micrococcus,> 8 µg/mL
NCC[C@H](O)C(=O)N[C@@H]1C[C@H](N)[C@@H](O[C@H]2O[C@H](CN)[C@@H](O)[C@H](O)[C@H]2O)[C@H](O)[C@H]1O[C@H]1O[C@H](CO)[C@@H](O)[C@H](N)[C@H]1O [AMIKACIN],MIC50,Pseudomonas aeruginosa,8 µg/mL
same,MIC90,Pseudomonas aeruginosa,64 µg/mL
same,MIC50,Acinetobacter baumannii,16 µg/mL
same,MIC90,Acinetobacter baumannii,> 128 µg/mL
same,MIC50,Pseudomonas fluorescens,16 µg/mL
same,MIC90,Pseudomonas fluorescens,> 128 µg/mL
same,MIC50,[11],16 µg/mL
same,MIC90,[11],> 128 µg/mL
same,MIC50,Klebsiella aerogenes,2 µg/mL
same,MIC90,Klebsiella aerogenes,8 µg/mL
same,MIC50,Klebsiella oxytoca,2 µg/mL
same,MIC90,Klebsiella oxytoca,8 µg/mL
same,MIC50,Citrobacter braakii,2 µg/mL
same,MIC90,Citrobacter braakii,8 µg/mL
same,MIC50,Citrobacter freundii,2 µg/mL
same,MIC90,Citrobacter freundii,8 µg/mL
same,MIC50,Enterobacter amnigenus,2 µg/mL
same,MIC90,Enterobacter amnigenus,8 µg/mL
same,MIC50,Enterobacter cloacae,2 µg/mL
same,MIC90,Enterobacter cloacae,8 µg/mL
same,MIC50,Escherichia coli,2 µg/mL
same,MIC90,Escherichia coli,4 µg/mL
same,MIC,Klebsiella pneumoniae,1 µg/mL
same,MIC50,Klebsiella pneumoniae,1 µg/mL
same,MIC90,Klebsiella pneumoniae,64 µg/mL
same,MIC50,Morganella morganii,2 µg/mL
same,MIC90,Morganella morganii,4 µg/mL
same,MIC50,Proteus mirabilis,4 µg/mL
same,MIC90,Proteus mirabilis,16 µg/mL
same,MIC50,Proteus penneri,2 µg/mL
same,MIC90,Proteus penneri,8 µg/mL
same,MIC50,Proteus vulgaris,2 µg/mL
same,MIC90,Proteus vulgaris,8 µg/mL
same,MIC50,Providencia stuartii,2 µg/mL
same,MIC90,Providencia stuartii,8 µg/mL
same,MIC50,Salmonella,2 µg/mL
same,MIC90,Salmonella,8 µg/mL
same,MIC50,Serratia marcescens,2 µg/mL
same,MIC90,Serratia marcescens,8 µg/mL
O=C(O)c1cn(C2CC2)c2cc(N3CCNCC3)c(F)cc2c1=O [CIPROFLOXACIN],MIC50,Pseudomonas aeruginosa,1 µg/mL
same,MIC90,Pseudomonas aeruginosa,> 8 µg/mL
same,MIC50,Acinetobacter baumannii,> 2 µg/mL
same,MIC90,Acinetobacter baumannii,> 8 µg/mL
same,MIC50,Pseudomonas fluorescens,> 2 µg/mL
same,MIC90,Pseudomonas fluorescens,> 8 µg/mL
same,MIC50,[11],> 2 µg/mL
same,MIC90,[11],> 8 µg/mL
same,MIC50,Klebsiella aerogenes,0.015 µg/mL
same,MIC90,Klebsiella aerogenes,> 2 µg/mL
same,MIC50,Klebsiella oxytoca,0.015 µg/mL
same,MIC90,Klebsiella oxytoca,> 2 µg/mL
same,MIC50,Citrobacter braakii,0.015 µg/mL
same,MIC90,Citrobacter braakii,> 2 µg/mL
same,MIC50,Citrobacter freundii,0.015 µg/mL
same,MIC90,Citrobacter freundii,> 2 µg/mL
same,MIC50,Enterobacter amnigenus,0.015 µg/mL
same,MIC90,Enterobacter amnigenus,> 2 µg/mL
same,MIC50,Escherichia coli,0.015 µg/mL
same,MIC90,Escherichia coli,1 µg/mL
same,MIC50,Morganella morganii,0.12 µg/mL
same,MIC90,Morganella morganii,> 8 µg/mL
same,MIC50,Proteus mirabilis,0.03 µg/mL
same,MIC90,Proteus mirabilis,> 2 µg/mL
same,MIC50,Proteus penneri,0.015 µg/mL
same,MIC90,Proteus penneri,> 2 µg/mL
same,MIC50,Proteus vulgaris,0.015 µg/mL
same,MIC90,Proteus vulgaris,> 2 µg/mL
same,MIC50,Providencia stuartii,0.015 µg/mL
same,MIC90,Providencia stuartii,> 2 µg/mL
same,MIC50,Salmonella,0.015 µg/mL
same,MIC90,Salmonella,> 2 µg/mL
same,MIC50,Serratia marcescens,0.015 µg/mL
same,MIC90,Serratia marcescens,> 2 µg/mL
CO/N=C(\C(=O)N[C@@H]1C(=O)N2C(C(=O)[O-])=C(C[N+]3(C)CCCC3)CS[C@H]12)c1csc(N)n1,MIC50,Pseudomonas aeruginosa,4 µg/mL
same,MIC90,Pseudomonas aeruginosa,64 µg/mL
same,MIC50,Acinetobacter baumannii,> 16 µg/mL
same,MIC90,Acinetobacter baumannii,32 µg/mL
same,MIC50,Pseudomonas fluorescens,> 16 µg/mL
same,MIC90,Pseudomonas fluorescens,32 µg/mL
same,MIC50,[11],> 16 µg/mL
same,MIC90,[11],32 µg/mL
same,MIC50,Klebsiella aerogenes,0.06 µg/mL
same,MIC90,Klebsiella aerogenes,4 µg/mL
same,MIC50,Klebsiella oxytoca,0.06 µg/mL
same,MIC90,Klebsiella oxytoca,4 µg/mL
same,MIC50,Citrobacter braakii,0.06 µg/mL
same,MIC90,Citrobacter braakii,4 µg/mL
same,MIC50,Citrobacter freundii,0.06 µg/mL
same,MIC90,Citrobacter freundii,4 µg/mL
same,MIC50,Enterobacter amnigenus,0.06 µg/mL
same,MIC90,Enterobacter amnigenus,4 µg/mL
same,MIC50,Escherichia coli,0.03 µg/mL
same,MIC90,Escherichia coli,0.12 µg/mL
same,MIC50,Klebsiella pneumoniae,≤ 0.12 µg/mL
same,MIC90,Klebsiella pneumoniae,1 µg/mL
same,MIC50,Morganella morganii,0.03 µg/mL
same,MIC90,Morganella morganii,> 64 µg/mL
same,MIC50,Proteus mirabilis,0.06 µg/mL
same,MIC90,Proteus mirabilis,1 µg/mL
same,MIC50,Proteus penneri,0.06 µg/mL
same,MIC90,Proteus penneri,4 µg/mL
same,MIC50,Proteus vulgaris,0.06 µg/mL
same,MIC90,Proteus vulgaris,4 µg/mL
same,MIC50,Providencia stuartii,0.06 µg/mL
same,MIC90,Providencia stuartii,4 µg/mL
same,MIC50,Salmonella,0.06 µg/mL
same,MIC90,Salmonella,4 µg/mL
same,MIC50,Serratia marcescens,0.06 µg/mL
same,MIC90,Serratia marcescens,4 µg/mL
GENTAMICIN,MIC50,Pseudomonas aeruginosa,4 µg/mL
same,MIC90,Pseudomonas aeruginosa,> 16 µg/mL
